Results: patent US10646427B2, “Cosmetic compositions comprising spiculisporic acid and an ester of fatty acid and(poly)glycerol optionally polyoxyalkylenated” (L'OREAL, priority 2013, dated 2020)

Tested on: reconstructed Episkin J13 skin model
Test: Episkin Peeling test (detachment of corneocytes measured by dosage of proteins)
Type: cell-based
Settings: for desquamating efficacy (detachment of corneocytes) compared to 30% glycolic acid reference: 10 min treatment
Method: The Episkin Peeling test measures the detachment of corneocytes of the reconstructed Episkin J13 skin model. At this stage of maturation, the epidermis has a well differentiated stratum corneum (SC).
The sample is treated for 10 minutes with the control or test solution. The sample is taken and placed on the wall of a tube; its surface is then washed with a swab. The washing solution is filtered to preserve only the detached corneocytes. Their presence is measured by a dosage of proteins with the BCA Kit (PIERCE no. 23225).
The reference molecule is glycolic acid (AG). This is one of the compounds used in peeling at rates of occasionally up to 70%. It is applied for short times on the order of a few minutes and then neutralised.
The rate of 30% was used because it allows for good response dynamics with a short application time of 10 min.
Three Episkin batches are used for each study (n=3 per batch and per condition).
The evaluation of the raw materials (MP) is carried out by comparing the results of the MP to those obtained with 30% AG. The MP is effective if it reaches the level of the reference.
They were immersed in water. Spiculisporic acid was salified with potassium (KOH).
The dosage of free proteins, measured by DO, is to proportional to the quantity of corneocytes extracted, and thus to desquamation.

In the case of `CCCCCCCC(=O)OCC(O)CO` (stereo not shown) [GMCY, Glyceryl caprylate], the “desquamating efficacy (detachment of corneocytes) compared to 30% glycolic acid reference” value (5% in water) is reported as “desquamating efficacy (almost) reaching that of the glycolic acid reference at 30%” and the “desquamating efficacy (detachment of corneocytes) compared to 30% glycolic acid reference” value (5% in water, listed as glyceryl caprylate) is reported as “positive, but not significant, desquamation relative to the positive control”.
For `O=C(O)CO` [AG, glycolic acid, reference compound], the “detachment of corneocytes measured by dosage of proteins (FIG. 1)” value (10%, 30% and 50%) was “dose-dependent effect”.
For `O=C(O)CC(O)(CC(=O)O)C(=O)O` [citric acid, Citric acid, reference compound], the “desquamating efficacy (detachment of corneocytes) compared to 30% glycolic acid reference” value (10% in water) was “does not reach the effect of the reference” and the “desquamating efficacy (detachment of corneocytes) compared to 30% glycolic acid reference” value (30% in water) was “reaches the efficacy level of the reference”.
With `CCCCCCCCCCC(C(=O)O)C1(C(=O)O)CCC(=O)O1` (stereo not shown) [Spiculisporic acid K+, 4,5-dicarboxy-4-pentadecanolide] the “desquamating efficacy (detachment of corneocytes) compared to 30% glycolic acid reference” value (1% in water, salified with KOH) was “no effect on the detachment of corneocytes” and the “desquamating efficacy (detachment of corneocytes) compared to 30% glycolic acid reference” value (1% in water, salified with KOH, listed as spiculisporic acid) was “absence of desquamation”.
